Results reported in patent US7585875B2, “Substituted pyrazolo[1,5-a]pyridine compounds and their methods of use” (Avigen, Inc., priority 2006, dated 2009).
Structures can show the parent of a compound that is named as a salt. Where two headings read alike, the source gives them in different places.

What was measured:
[1] = system: mechanical allodynia after chronic constriction injury (CCI) to the sciatic nerve; assay: Mechanical allodynia by response to von Frey fibers, rat chronic constriction injury (CCI) model; format: in vivo, male Sprague-Dawley rats; conditions: 2 hr post dosing
Source text: Chronic Constriction Injury: Heat and cold allodynia responses as well as mechanical allodynia sensations can be evaluated as described below in rats having a chronic constriction injury (CCI). A unilateral mononeuropathy is produced in rats using the chronic constriction injury model described in Bennett et al., Pain (1988) 33:87-107. CCI is produced in anesthetized rats as follows. The lateral aspect of each rat's hind limb is shaved and scrubbed with Nolvasan. Using aseptic techniques, an incision is made on the lateral aspect of the hind limb at the mid-thigh level. The biceps femoris is bluntly dissected to expose the sciatic nerve. On the right hind limb of each rat, four loosely tied ligatures (for example, Chromic gut 4.0; Ethicon, Johnson and Johnson, Somerville, N.J.) are made around the sciatic nerve approximately 1-2 mm apart. On the left side of each rat, an identical dissection is performed except that the sciatic nerve is not ligated (sham). The muscle is closed with a continuous suture pattern with, e.g., 4-0 Vicryl (Johnson and Johnson, Somerville, N.J.) and the overlying skin is closed with wound clips. The rats are ear-tagged for identification purposes and returned to animal housing.
To induce allodynia, male Sprague-Dawley rats underwent chronic constriction injury (CCI) to the sciatic nerve as described by Bennett and Xie, Pain 1988; 33(1):87-107. The plantar surface of the hind paws was stimulated with von Frey filaments (Stoelting) to induce a withdrawal response by blinded personnel. The bending force of fiber required to induce a 50% withdrawal response was calculated following CCI surgery (pre-dosing baseline). N=5-6 allodynic rats received a single intraperitoneal administration of test compound or vehicle. Two hours post-dosing, 50% paw withdrawal threshold was determined again by blinded testers using von Frey filaments. The change in 50% withdrawal threshold relative to pre-dosing baseline is reported in Table 2 for various substituted pyrazolo[1,5-a]pyridine compounds of the invention.

[2] = system: TNF-α production in LPS-stimulated human peripheral blood mononuclear cells; assay: Inhibition of LPS-stimulated TNF-α release from PBMCs; format: cell-based; conditions: PBMC
Description: (§1) IC50 values were determined for representative compounds of the invention based upon their ability to inhibit LPS-induced cytokine production in human peripheral blood mononuclear cells. Human PBMCs (peripheral blood mononuclear cells) were isolated over a Ficoll gradient from buffy coats obtained from the local Red Cross. 10^6 PBMC cells/well were seeded in 24-well tissue culture plates in RPMI 1640 medium supplemented with 10% human serum, hepes buffer and sodium pyruvate. The cells were treated with 0.1% DMSO (vehicle) or test compounds (1, 10, and 100 uM) 30 minutes prior to activation with LPS (lipopolysaccharide) (E. Coli) at 10 ng/mL. 6-10 hours post LPS stimulation the culture supernatants were collected and levels of cytokines TNF-α and IL-1β were quantified by ELISA (R&D Systems) and/or Luminex (Linco Diagnostics). IC50 calculations were plotted using a nonlinear regression curve fit for exemplary substituted pyrazolo[1,5-a]pyridine compounds of the invention; results are provided in Table 2.

[3] = molecular target: phosphodiesterase (PDE) enzyme derived from bovine brain; assay: Inhibition of PDE (PDELight kit, cAMP substrate); format: biochemical; conditions: PDE from brain extract, cAMP as substrate
Description: In a 96-well plate, phosphodiesterase (PDE) enzyme (0.5-1 mU/well) derived from bovine brain (Sigma) was combined with 5 uM cAMP substrate (Sigma). Test compounds (0-200 uM) or vehicle (0.5% DMSO) were added to the enzyme/substrate and incubated for 1 hour. Using a PDELight® kit (Cambrex), the amount of AMP produced in the reaction from the hydrolysis of cAMP was quantified using PDELight AMP Detection Reagent which converts the AMP directly to ATP. The assay uses luciferase, which catalyses the formation of light from the newly formed ATP and luciferin. The luminescence was read on a Victor Light 1420 luminometer. IC50 calculations were plotted using a nonlinear regression curve fit.

[4] = system: IL-1β production in LPS-stimulated human peripheral blood mononuclear cells; assay: Inhibition of LPS-stimulated IL-1β release from PBMCs; format: cell-based; conditions: PBMC, LPS-stimulated cytokine release from PBMCs
Description: as §1

[5] = less than or equal to about 50 μM, PBMCs, read-out: IC50, LPS-induced cytokine production (cytokine not specified)
[6] = LPS-stimulated cytokine release from PBMCs, read-out: TNF-α (IC50)

Row | SMILES | Mechanical Allodynia ΔWT (change from pre-dosing 50% withdrawal threshold) ([1]; 10 mg/kg IP) | IC50 [2, 5] | IC50 [3] | melting point | IC50 [4] | IC50 [2, 6] | Mechanical Allodynia ΔWT (change from pre-dosing 50% withdrawal threshold) ([1]; 20 mg/kg IP) | Mechanical Allodynia ΔWT (change from pre-dosing 50% withdrawal threshold) ([1]; 25 mg/kg PO) | Mechanical Allodynia ΔWT (change from pre-dosing 50% withdrawal threshold) ([1]; 40 mg/kg IP)
1 | CC(C)C(=O)c1c(-c2ccc(Cl)cc2)nn2ccccc12 [Compound 1024, 1-(2-(4-chlorophenyl)pyrazolo[1,5-a]pyridin-3-yl)-2-methylpropan-1-one] | 0.43 grams | ≤ 50 µM | 18.2 µM | – | – | – | – | – | –
2 | CC(CN1CCCCC1)C(=O)c1c(C(C)C)nn2ccccc12.Cl (stereo not shown) [compound 1063, 1-(2-isopropylpyrazolo[1,5-a]pyridin-3-yl)-2-methyl-3-(piperidin-1-yl)propan-1-one hydrochloride] | 0 grams | – | – | 166 to 167 °C | – | – | – | – | –
3 | CC(C)C(=NO)c1c(C(C)C)nn2ccccc12 [Compound 1012, 1-(2-isopropylpyrazolo[1,5-a]pyridin-3-yl)-2-methylpropan-1-one oxime] | 1.56 grams | – | 40 µM | – | 99 µM | > 100 µM | – | – | –
4 | CC(C)C(=NO)c1c(-c2ccccc2)nn2ccccc12 [Compound 1016, 2-methyl-1-(2-phenylpyrazolo[1,5-a]pyridin-3-yl)propan-1-one oxime] | 0 grams | – | 75 µM | – | > 100 µM | > 100 µM | – | – | –
5 | COc1ccc(C(=O)c2c(C(C)C)nn3ccccc23)cc1 [Compound 1008, (2-isopropylpyrazolo[1,5-a]pyridin-3-yl)(4-methoxyphenyl)methanone] | 0.84 grams | ≤ 50 µM | 5.8 µM | – | > 100 µM | 50 µM | – | – | –
6 | CC(C)c1nn2ccccc2c1C(=O)C(C)(C)O [compound 1004, 2-hydroxy-1-(2-isopropylpyrazolo[1,5-a]pyridin-3-yl)-2-methylpropan-1-one] | 0.48 grams | ≤ 50 µM | 12.6 µM | – | > 100 µM | 28.8 µM | – | – | –
7 | CC(C)C(=O)c1c(-c2ccc(F)cc2)nn2ccccc12 [Compound 1018, 1-(2-(4-fluorophenyl)pyrazolo[1,5-a]pyridin-3-yl)-2-methylpropan-1-one] | 0 grams | ≤ 50 µM | > 200 µM | – | > 100 µM | 32.7 µM | – | – | –
8 | COc1ccc2c(C(=O)C(C)C)c(C(C)C)nn2c1 [compound 1005, 1-(2-isopropyl-6-methoxypyrazolo[1,5-a]pyridin-3-yl)-2-methylpropan-1-one] | 0.17 grams | – | 59.5 µM | – | – | 76 µM | – | – | –
9 | CC(C)C(=O)c1c(C(C)C)nn2cc(O)ccc12 [compound 1006, 1-(6-hydroxy-2-isopropylpyrazolo[1,5-a]pyridin-3-yl)-2-methylpropan-1-one] | 0 grams | ≤ 50 µM | 29.6 µM | – | 14.7 µM | 1.3 µM | – | – | –
10 | CC(N)C(=O)c1c(C(C)C)nn2ccccc12 (stereo not shown) [compound 1013, 2-amino-1-(2-isopropylpyrazolo[1,5-a]pyridin-3-yl)propan-1-one] | 10 mg/kg: 1.04 grams | ≤ 50 µM | > 200 µM | – | > 100 µM | 13.6 µM | 20 mg/kg: 1.33 grams | 25 mg/kg PO: 1.39 grams | 40 mg/kg: 3.16 grams
11 | CC(C)C(=NO)c1c(-c2ccc(F)cc2)nn2ccccc12 [compound 1019, 1-(2-(4-fluorophenyl)pyrazolo[1,5-a]pyridin-3-yl)-2-methylpropan-1-one oxime] | 1.4 grams | – | 40 µM | – | > 100 µM | > 100 µM | – | – | –
12 | COc1ccc(-c2nn3ccccc3c2C(=O)C(C)C)cc1 [Compound 1021, 1-(2-(4-methoxyphenyl)pyrazolo[1,5-a]pyridin-3-yl)-2-methylpropan-1-one] | 0.45 grams | – | > 200 µM | – | – | – | – | – | –
13 | CC(C)c1nn2ccccc2c1C(=O)c1ccc(Cl)cc1 [Compound 1007, (4-chlorophenyl)(2-isopropylpyrazolo[1,5-a]pyridin-3-yl)methanone] | 0.92 grams | ≤ 50 µM | > 200 µM | – | 29.7 µM | 13 µM | – | – | –
14 | CC(NC1CC1)C(=O)c1c(C(C)C)nn2ccccc12 (stereo not shown) [Compound 1045, 2-(cyclopropylamino)-1-(2-isopropylpyrazolo[1,5-a]pyridin-3-yl)propan-1-one hydrochloride] | 0 grams | – | 61.1 µM | – | – | – | – | – | –
15 | CC(C)C(=O)c1c(C(C)(C)O)nn2ccccc12 [compound 1003, 1-(2-(2-hydroxypropan-2-yl)pyrazolo[1,5-a]pyridin-3-yl)-2-methylpropan-1-one] | 0 grams | – | > 100 µM | – | – | – | – | – | –
16 | CC(C)C(=O)c1c(-c2ccccc2)nn2ccccc12 [Compound 1015, 2-methyl-1-(2-phenylpyrazolo[1,5-a]pyridin-3-yl)propan-1-one] | 0.51 grams | – | 80 µM | – | > 100 µM | > 100 µM | – | – | –
17 | CC(C)c1nn2ccccc2c1C(=O)C(C)N1CCOCC1 (stereo not shown) [Compound 1034, 1-(2-isopropylpyrazolo[1,5-a]pyridin-3-yl)-2-morpholinopropan-1-one hydrochloride] | 10 mg/kg: 1.71 grams | – | 43.3 µM | – | – | – | 20 mg/kg: 0.54 grams | – | –
18 | CCC(=O)c1c(CC)nn2ccccc12 [Compound 1040, 1-(2-ethylpyrazolo[1,5-a]pyridin-3-yl)propan-1-one] | 0.12 grams | – | 27.1 µM | – | – | – | – | – | –
19 | CC(C)c1nn2ccccc2c1C(=O)CN [Compound 1009, 2-amino-1-(2-isopropylpyrazolo[1,5-a]pyridin-3-yl)ethanone] | 1.15 grams | ≤ 50 µM | > 200 µM | – | 99 µM | 25 µM | – | – | –
20 | CC(C)C(=NOC(N)=O)c1c(C(C)C)nn2ccccc12 [compound 1014, 1-(2-isopropylpyrazolo[1,5-a]pyridin-3-yl)-2-methylpropan-1-one O-carbamoyl oxime] | 10 mg/kg: 2.18 grams | ≤ 50 µM | 100 µM | – | 1 µM | 1.3 µM | 20 mg/kg: 3.73 grams | – | –
21 | CC(C)C(=O)c1c(C(C)C)nn2ccccc12 [compound 411, 3-isobutyryl-2-isopropylpyrazolo[1,5-a]pyridine, reference compound] | 2.31-3.53 grams | – | 10.3 µM | – | 17.9 µM | 5 µM | – | – | –
22 | CC(C)c1nn2ccccc2c1C(=O)C(C)N(C)Cc1ccccc1 (stereo not shown) [Compound 1041, 2-(benzyl(methyl)amino)-1-(2-isopropylpyrazolo[1,5-a]pyridin-3-yl)propan-1-one] | 0.22 grams | – | 21.5 µM | – | – | – | – | – | –
